Where two headings read alike, the source gives them in different places.
Legend:
Assay in all cases: Dundee kinase screen re-test (standard format and 4 hour pre-incubation)
Assay type in all cases: biochemical
EPH-B3 = biological target: T1, EPH-B3 (Homo sapiens, UniProt P54753); conditions: EPH-B3, 0.5µM
T1 sequence (P54753 34-998): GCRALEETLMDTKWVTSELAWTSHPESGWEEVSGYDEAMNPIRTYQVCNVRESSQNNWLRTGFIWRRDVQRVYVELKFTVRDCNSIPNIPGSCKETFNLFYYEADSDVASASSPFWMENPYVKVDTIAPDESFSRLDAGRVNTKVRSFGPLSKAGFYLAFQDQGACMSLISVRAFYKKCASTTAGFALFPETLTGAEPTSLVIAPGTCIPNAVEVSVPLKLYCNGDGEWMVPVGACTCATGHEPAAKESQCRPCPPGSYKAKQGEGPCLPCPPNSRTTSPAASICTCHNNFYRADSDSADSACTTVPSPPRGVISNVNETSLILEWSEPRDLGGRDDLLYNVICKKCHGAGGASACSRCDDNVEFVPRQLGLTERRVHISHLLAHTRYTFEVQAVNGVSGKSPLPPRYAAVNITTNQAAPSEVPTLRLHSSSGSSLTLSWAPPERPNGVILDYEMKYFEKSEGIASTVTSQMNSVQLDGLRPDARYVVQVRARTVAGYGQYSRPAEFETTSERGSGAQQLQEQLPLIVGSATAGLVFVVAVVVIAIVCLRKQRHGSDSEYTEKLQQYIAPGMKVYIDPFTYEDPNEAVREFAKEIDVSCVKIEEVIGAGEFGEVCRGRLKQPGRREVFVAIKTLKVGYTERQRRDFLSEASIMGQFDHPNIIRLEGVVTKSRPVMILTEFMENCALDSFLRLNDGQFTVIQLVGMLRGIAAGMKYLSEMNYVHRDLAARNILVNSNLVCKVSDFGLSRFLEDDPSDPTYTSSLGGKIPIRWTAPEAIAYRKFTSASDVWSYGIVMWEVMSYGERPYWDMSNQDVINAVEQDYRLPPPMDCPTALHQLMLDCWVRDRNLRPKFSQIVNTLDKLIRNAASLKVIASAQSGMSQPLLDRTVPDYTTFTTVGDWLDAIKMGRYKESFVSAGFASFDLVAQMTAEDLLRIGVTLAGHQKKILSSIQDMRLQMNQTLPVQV
Method: (§1) Prior to determining its cellular activity, we carried out a screen to assess its selectivity against a panel of 131 protein kinases under conditions that would not distinguish between a reversible or irreversible mode of action. […] These 13 kinases and 29 additional kinases, selected for their known sensitivity to other inhibitors within the purine series, were then tested in a modified screening format in which the assay was repeated following a 4-hr pre-incubation (Table S3B). […] However, conformational flexibility around the active site may promote such an interaction with a residue from another part of the structure ([Martin et al., 2012]).
(§2) Table S3, Related to Figure 4. NCL-0006300 protein kinase selectivity. […]
(§3) Dundee protein kinase screen (Bain et al., 2007). […]
(§4) (B) Selected kinases were re-tested in the Dundee kinase screen against NU6300 at a single concentration of 0.5 µM both in the standard assay format and following a 4 hour pre-incubation in the presence of NU6300. Kinases which have very low activity after the 4 hour incubation so that results might not be wholly reliable are boxed in salmon. Kinases where the activity after a 4 hour pre-incubation is < 50% that in the standard assay format are highlighted in red.

IRR = IRR (Homo sapiens, UniProt P14616)
Sequence of IRR (P14616 27-1297): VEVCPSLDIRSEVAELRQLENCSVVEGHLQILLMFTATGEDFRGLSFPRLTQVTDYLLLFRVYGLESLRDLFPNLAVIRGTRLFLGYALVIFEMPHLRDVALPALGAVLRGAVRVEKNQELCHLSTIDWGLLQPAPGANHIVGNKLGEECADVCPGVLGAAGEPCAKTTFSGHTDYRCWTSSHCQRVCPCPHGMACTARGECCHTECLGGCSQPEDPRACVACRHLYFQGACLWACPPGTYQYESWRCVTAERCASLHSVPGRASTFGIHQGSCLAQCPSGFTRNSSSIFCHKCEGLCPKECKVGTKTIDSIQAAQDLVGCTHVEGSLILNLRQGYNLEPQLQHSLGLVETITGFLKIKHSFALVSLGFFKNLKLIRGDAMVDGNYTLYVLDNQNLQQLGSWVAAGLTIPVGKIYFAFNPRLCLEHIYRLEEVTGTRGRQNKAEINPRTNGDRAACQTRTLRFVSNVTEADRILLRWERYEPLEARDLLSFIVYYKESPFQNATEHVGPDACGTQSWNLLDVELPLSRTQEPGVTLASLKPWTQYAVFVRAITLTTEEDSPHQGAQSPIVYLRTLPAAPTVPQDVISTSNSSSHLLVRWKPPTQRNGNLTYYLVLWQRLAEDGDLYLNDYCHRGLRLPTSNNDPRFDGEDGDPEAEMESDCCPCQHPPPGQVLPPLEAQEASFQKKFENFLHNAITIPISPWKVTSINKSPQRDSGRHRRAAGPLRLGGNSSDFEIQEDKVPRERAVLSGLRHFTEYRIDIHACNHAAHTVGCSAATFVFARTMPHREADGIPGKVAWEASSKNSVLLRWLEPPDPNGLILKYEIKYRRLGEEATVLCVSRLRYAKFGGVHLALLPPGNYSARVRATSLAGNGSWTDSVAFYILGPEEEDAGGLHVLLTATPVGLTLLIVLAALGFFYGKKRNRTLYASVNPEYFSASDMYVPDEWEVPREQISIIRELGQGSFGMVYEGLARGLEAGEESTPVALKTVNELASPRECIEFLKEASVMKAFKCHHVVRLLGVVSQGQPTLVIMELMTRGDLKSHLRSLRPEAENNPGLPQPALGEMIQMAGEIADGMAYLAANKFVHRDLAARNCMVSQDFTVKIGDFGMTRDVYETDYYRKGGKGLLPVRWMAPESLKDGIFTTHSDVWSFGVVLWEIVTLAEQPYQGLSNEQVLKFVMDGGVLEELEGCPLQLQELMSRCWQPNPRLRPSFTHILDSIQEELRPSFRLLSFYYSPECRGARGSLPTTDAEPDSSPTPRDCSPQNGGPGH
Method: as §1, §2, §3, §4

MST4 = MST4 (Homo sapiens, UniProt Q9P289); conditions: MST4, 0.5µM
Sequence of MST4 (Q9P289 whole entry): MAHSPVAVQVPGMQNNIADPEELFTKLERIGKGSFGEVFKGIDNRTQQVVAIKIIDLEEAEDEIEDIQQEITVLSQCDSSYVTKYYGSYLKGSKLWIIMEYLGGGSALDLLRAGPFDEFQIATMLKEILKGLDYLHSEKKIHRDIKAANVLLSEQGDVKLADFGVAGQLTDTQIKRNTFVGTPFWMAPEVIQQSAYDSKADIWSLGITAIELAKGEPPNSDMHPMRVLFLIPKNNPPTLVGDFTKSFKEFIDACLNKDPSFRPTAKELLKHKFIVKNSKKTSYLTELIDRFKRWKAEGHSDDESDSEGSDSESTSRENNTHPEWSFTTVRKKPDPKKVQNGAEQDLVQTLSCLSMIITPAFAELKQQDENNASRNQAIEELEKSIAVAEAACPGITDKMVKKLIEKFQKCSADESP
Method: as §1, §2, §3, §4

PAK4 = PAK4 (Homo sapiens, UniProt O96013); conditions: PAK4, 0.5µM
Sequence of PAK4 (O96013 whole entry): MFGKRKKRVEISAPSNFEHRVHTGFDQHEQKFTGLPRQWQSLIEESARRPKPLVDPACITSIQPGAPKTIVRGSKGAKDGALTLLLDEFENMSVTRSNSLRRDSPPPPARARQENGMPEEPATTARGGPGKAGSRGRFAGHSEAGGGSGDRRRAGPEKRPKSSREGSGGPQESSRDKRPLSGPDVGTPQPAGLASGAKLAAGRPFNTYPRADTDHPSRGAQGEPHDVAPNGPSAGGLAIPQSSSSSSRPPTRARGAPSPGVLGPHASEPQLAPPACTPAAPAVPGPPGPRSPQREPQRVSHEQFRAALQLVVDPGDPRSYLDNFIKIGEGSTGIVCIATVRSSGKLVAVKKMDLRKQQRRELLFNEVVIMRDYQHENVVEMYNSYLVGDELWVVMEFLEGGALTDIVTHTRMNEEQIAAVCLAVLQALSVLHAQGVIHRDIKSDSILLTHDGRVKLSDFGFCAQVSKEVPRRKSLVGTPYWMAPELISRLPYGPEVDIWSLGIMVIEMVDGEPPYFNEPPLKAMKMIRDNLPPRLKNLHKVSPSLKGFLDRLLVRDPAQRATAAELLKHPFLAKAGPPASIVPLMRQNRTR
Method: as §1, §2, §3, §4

TTK = biological target: T2, TTK (Homo sapiens, UniProt P33981)
T2 sequence (P33981 1-857): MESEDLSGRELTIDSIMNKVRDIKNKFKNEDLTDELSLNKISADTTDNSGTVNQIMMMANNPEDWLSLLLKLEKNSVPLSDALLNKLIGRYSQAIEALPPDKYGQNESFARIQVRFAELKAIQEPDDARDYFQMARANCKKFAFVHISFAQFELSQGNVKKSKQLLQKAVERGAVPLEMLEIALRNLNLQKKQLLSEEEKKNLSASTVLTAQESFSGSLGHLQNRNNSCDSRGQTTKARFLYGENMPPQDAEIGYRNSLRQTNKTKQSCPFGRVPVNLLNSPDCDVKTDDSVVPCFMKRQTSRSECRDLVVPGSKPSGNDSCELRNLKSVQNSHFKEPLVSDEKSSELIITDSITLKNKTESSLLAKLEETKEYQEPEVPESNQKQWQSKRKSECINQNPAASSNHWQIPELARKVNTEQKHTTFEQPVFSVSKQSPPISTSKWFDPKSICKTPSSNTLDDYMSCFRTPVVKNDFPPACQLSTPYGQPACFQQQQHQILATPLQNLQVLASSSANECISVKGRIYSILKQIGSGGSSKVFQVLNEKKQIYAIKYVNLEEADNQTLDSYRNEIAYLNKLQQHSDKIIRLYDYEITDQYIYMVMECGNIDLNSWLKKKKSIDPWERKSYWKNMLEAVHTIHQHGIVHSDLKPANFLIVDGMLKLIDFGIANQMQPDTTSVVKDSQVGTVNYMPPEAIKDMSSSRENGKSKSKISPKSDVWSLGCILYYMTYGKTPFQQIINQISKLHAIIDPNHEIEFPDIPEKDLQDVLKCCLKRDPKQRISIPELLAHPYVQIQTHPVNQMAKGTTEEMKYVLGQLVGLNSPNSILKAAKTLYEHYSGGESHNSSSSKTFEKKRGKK
Method: as §1, §2, §3, §4

YES1 = YES1 (Homo sapiens, UniProt P07947); conditions: YES1, 0.5µM
Sequence of YES1 (P07947 whole entry): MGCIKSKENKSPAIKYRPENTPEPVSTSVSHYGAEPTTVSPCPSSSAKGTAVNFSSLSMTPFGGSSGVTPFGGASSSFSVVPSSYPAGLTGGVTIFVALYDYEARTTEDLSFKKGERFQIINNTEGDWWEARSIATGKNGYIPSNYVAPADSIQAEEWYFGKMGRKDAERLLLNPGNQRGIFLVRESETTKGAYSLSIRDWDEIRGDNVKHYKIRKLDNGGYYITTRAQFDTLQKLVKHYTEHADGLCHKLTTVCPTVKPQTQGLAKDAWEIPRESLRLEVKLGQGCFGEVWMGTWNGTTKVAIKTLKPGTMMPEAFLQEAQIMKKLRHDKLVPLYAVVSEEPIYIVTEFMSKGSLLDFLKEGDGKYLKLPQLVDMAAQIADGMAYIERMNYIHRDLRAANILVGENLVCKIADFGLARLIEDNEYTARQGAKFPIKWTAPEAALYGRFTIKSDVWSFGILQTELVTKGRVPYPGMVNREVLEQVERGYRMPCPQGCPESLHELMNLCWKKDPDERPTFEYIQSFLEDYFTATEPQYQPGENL
Method: as §1, §2, §3, §4

[1] = 4hr RT preincubation, read-out: %Remaining activity at 0.5µM NU6300 - 4hr RT preincubation
[2] = usual format, read-out: %Remaining activity at 0.5µM NU6300 - Usual assay format

C=CS(=O)(=O)c1ccc(Nc2nc(OCC3CCCCC3)c3nc[nH]c3n2)cc1 [NU6300, 6-(cyclohexylmethoxy)-N-(4-(vinylsulfonyl)phenyl)-9H-purin-2-amine]
remaining activity at 0.5 µM (EPH-B3; [1]): 17%
remaining activity at 0.5 µM (EPH-B3; [2]): 12%
remaining activity at 0.5 µM (IRR; [1]): 45%
remaining activity at 0.5 µM (IRR; [2]): 73%
remaining activity at 0.5 µM (MST4; [1]): 94%
remaining activity at 0.5 µM (MST4; [2]): 74%
remaining activity at 0.5 µM (PAK4; [1]): 82%
remaining activity at 0.5 µM (PAK4; [2]): 34%
remaining activity at 0.5 µM (TTK; [1]): 47%
remaining activity at 0.5 µM (TTK; [2]): 41%
remaining activity at 0.5 µM (YES1; [1]): 135%
remaining activity at 0.5 µM (YES1; [2]): 43%

From publication PMC4579270, “Identification and Characterization of an Irreversible Inhibitor of CDK2” (Chemistry & Biology, 2015)
